The values that follow come from US10242153B2, “Method for determining the risk profile of neoplastic tissue” (NOVAZOI THERANOSTICS, priority 2014, dated 2019).

Assay [1] concerns N1E-115 cells. Briefly: Neuritogenesis (neurite extension) in serum-starved N1E-115 cells. The note with it: 48 h, PJ-34 10 μM, Paclitaxel 0.05 μM. The class given is cell-based, murine. The procedure:
N1E-115 cells grown in serum-starved (SS) medium were evaluated to determine the extent of neurite formation after 48 h of treatment with RedBr-Nos (5 μM), Griseofulvin (10 μM), PJ-34 (10 μM), Paclitaxel (0.05 μM) treatment or untreated control cells (i.e., serum-starved medium (SS) alone). Panels Ai and Aii depict quantitative bar graphs representing the average length of neurites and percentage of population of cells showing neurite length >10 μm, respectively. A hundred cells were counted in each case. […] Panel B depicts an immunoblot showing CLASP1 expression levels in control (C) and CLASP1 siRNA-transfected N1E-115 cells.
Neuritogenesis is a process in nerve cells involving the extension of polarized, elongated neurites. N1E-115 cells usually extend only one major neurite per cell, which can vary in length from 5 to 500 μm. The growth cones of the neurites serve as primary focal points of motility. The effect of declustering agents on cell motility was evaluated by assessing the length and frequency of neurites formed in a serum-free medium on a laminin-coated surface.

Assay [2] has as its system N1E-115 cells. Briefly: Golgi (GM130) and γ-tubulin co-immunostaining of drug-treated N1E-115 cells. The format is cell-based, murine. As to conditions: data not shown. The source says: The Golgi, which is primarily responsible for posttranslational modification and protein sorting, also functions as a microtubule-organizing center (MTOC). It has been hypothesized that supernumerary centrosomes may better organize the Golgi to enhance directional cell migration. To investigate what happens to the Golgi upon declustering drug-induced dispersal of the interphase centrosomal cluster, drug-treated N1E-115 cells were co-immunostained with GM130 (a cis-Golgi matrix protein crucial for maintaining its structure) and γ-tubulin.

Assay [3] concerns N1E-115 cells. Briefly: Interphase declustering index (DI) in N1E-115 cells. The class given is cell-based, murine. As to conditions: 6-h treatment, 25 interphase cells, drugs at their respective IC50 concentrations. Here is the method:
To evaluate their effect on interphase clustering, N1E-115 cells were treated with these drugs at their respective IC50 concentrations for 0, 3, 6 and 9 h and co-immunostained for γ-tubulin and α-tubulin to evaluate centrosomal spread and microtubule nucleation status, respectively.
Cell cycle phases were further evaluated via lamin A/C immunostaining to distinguish interphase declustering events from prophase centrosomal spread. To quantitate the spread of the interphase centrosomal cluster, a 3D reconstruction of z-stack images of 25 randomly-selected interphase cells from the 6-h treatment group of each drug were generated. By defining an ROI (region of interest) around the interphase centrosomal cluster, the volume of the cluster spread was calculated using Volocity software. Likewise, defining an ROI using the cell periphery provided the cell volume.

The subject of assay [4] is N1E-115 cells. Briefly: Drug sensitivity (IC50) of N1E-115 cells. The note with it: Mus musculus; N1E-115 cells (data not shown). The format is cell-based, murine.
In assay [5] the test system is N1E-115 cells. The assay is described as follows: Vinculin localization in serum-starved N1E-115 cells. The note with it: serum-starved (SS) cells. The format is cell-based, murine. The source says: Vinculin stabilizes cell-substrate contacts in neuronal cells undergoing neuritogenesis, while activation by actin-binding proteins mobilizes vinculin to focal adhesions. To determine the localization of vinculin in the neurite extensions and the effect of declustering agents on its localization, N1E-115 cells were immunostained cells for vinculin and stained F-actin using rhodamine-phalloidin.

In assay [6] the test system is HeLa cells. The assay is described as follows: Peak subG1 fraction by flow cytometry after declustering drugs, HeLa cells. The format is cell-based. The procedure: (§1) To evaluate the impact of putative declustering drugs on cell cycle progression and hypodiploidy (<2N DNA content, which may indicate apoptotic cells), MDA-MB-231 (231), PC3, and HeLa cells were treated with different concentrations of declustering drugs, stained with propidium iodide, labeled with anti-MPM2 antibody, and then assessed by flow cytometry at multiple time points over 48 hr. […] The duration, highest degree, and rapidity of onset of MA varied between drugs, drug concentrations, and cell lines (data not shown). In general, the maximum MA achieved was less pronounced in Nos- and PJ-treated cells. Drug-induced onset of MA was corroborated by substantial increases in cyclin B1 levels in all cell lines. For most cases, prolonged MA (˜24 hr in duration) was followed by a substantial increase in the subG1 population fraction. […] Instances where the subGl fraction was elevated without cleaved caspase-3 may either represent caspase-independent cell death or the presence of hypodiploid cells whose fate is unclear. In general, no consistent associations between the extent, duration, or timing of MA within drugs or across cell lines was found.
(Flow cytometry measures light scatter and fluorescence of single cells or particles in a stream.)

Assay [7] has as its system MCF10A cells. The assay is described as follows: Centrosome amplification (CA) by microscopy, MCF10A cells. The format is cell-based. As to conditions: interphase and mitotic MCF10A cells, both concentrations (10 and 25 μM), over 24 h. The procedure:
(§2) Consequently, CA was assessed in cultures treated with different concentrations of declustering drugs for 6, 12, 18, or 24 h and untreated controls via microscopy. Centrosomes were identified by γ-tubulin and centrin-2 colocalization at discrete foci.
(§3) To determine whether the CA-inducing activity of declustering drugs is restricted to cancer cells, two non-malignant cell lines, mammary fibrocystic (MCF10A) cells and adult human dermal fibroblasts (HDFs) were treated with these drugs. […] In comparison, 10 and 25 µM RBN increased peak CA over controls in interphase cells (p<0.001 and p=0.001, respectively), with the lower concentration dramatically augmenting peak CA to 56% of cells versus 15% for the higher dose (FIG. 13, panel B).

The subject of assay [8] is mammary fibrocystic (MCF10A) cells. Briefly: Peak subG1 fraction after declustering drugs, non-malignant MCF10A cells. The class given is cell-based. As to conditions: for peak subG1 percent compared to controls: MCF10A cells; for Peak subG1 percents over 48 h: MCF10A. Here is the method: as §1, §3
Importantly, a therapeutic window exists for several of these agents at the concentrations and in the cell lines tested compared to cancer cells.

Assay [9] has as its system adult human dermal fibroblasts (HDFs). The assay is described as follows: Centrosome amplification (CA) by microscopy, HDFs. The class given is cell-based. As to conditions: HDFs, any of the concentrations or time points assessed. Here is the method:
as §2, §3

Assay [10] has as its system ZR-75-30 cells with amplified centrosomes (ZR-A). Briefly: Sub-G1 population in ZR-75-30 cells with amplified centrosomes (ZR-A) versus parent cells. The class given is cell-based. The note with it: 25 μM, 48 h. Here is the method:
Panel A depicts representative DNA histograms comparing cell-cycle kinetics of ZR-75-30 cells and ZR-A cells treated with bromonoscapine (BN, 25 μM), griseofulvin (GF, 25 μM) or PJ34 (25 μM), respectively for 48 h. […] Panel B depicts a quantitative comparison of sub-G1 population in ZR-75-30 and ZR-A cells upon treatment with the three drugs with the same concentration (25 μM) for the same duration (48 h).
Accordingly, these cells can be pharmacologically manipulated with aphidicolin to generate extra centrosomes. […] Following aphidicolin wash-out, cells were stained using anti-centrin-2 antibodies to verify extra centrosomes by immunofluorescence confocal microscopy. About ˜60% ZR-75-30 cells generated extra centrosomes (6-8 per cell) and were evaluated for their sensitivity to the three drugs, griseofulvin, bromonoscapine, and PJ34, and compared with parent ZR-75-30 cells with normal centrosomes.

For assay [11], the system named is PC3 cells. The assay is described as follows: Peak subG1 fraction by flow cytometry after declustering drugs, PC3 cells. The format is cell-based. The procedure:
as §1

The test system of assay [12] is adult human dermal fibroblasts (HDFs). Briefly: Peak subG1 fraction after declustering drugs, non-malignant HDFs. The format is cell-based. As to conditions: for Peak subG1 percents over 48 h: HDF; for death in cancer cell lines vs. HDFs: both concentrations. Here is the method:
as §1, §3
In HDFs, all the drugs tested increased peak subG1 over controls in a significant fashion (p<0.01 for all) (Table 2). […] Thus, it appears that there may be clinically relevant therapeutic windows for these drugs depending on the type of cancer and the drug dosage.

For assay [13], the system named is MDA-MB-231 (231) cells. Briefly: Peak subG1 fraction by flow cytometry (propidium iodide) after declustering drugs, 231 cells. The format is cell-based, human. The procedure: as §1
Assay [14] relates to PLK4, Cyclin E, and Aurora A. Briefly: Western blotting of markers of centrosome amplification. The class given is cell-based. As to conditions: 231 cells, 25 μM.
Assay [15] deals with 231 cells. The assay is described as follows: Centrosome amplification (CA) by microscopy (γ-tubulin/centrin-2 foci), 231 cells. As to conditions: 231 cells, 25 μM. The class given is cell-based, human. Here is the method: Consequently, CA was assessed in cultures treated with different concentrations of declustering drugs for 6, 12, 18, or 24 h and untreated controls via microscopy. Centrosomes were identified by γ-tubulin and centrin-2 colocalization at discrete foci. […] The peak percent CA detected over 24 h is shown in FIG. 13 (only statistically significant (P<0.05) increases over control values are represented in the Figures). To better understand the “potency” of drug-induced CA with time, the average fold change in CA over controls over 24 h was assessed (FIG. 12, panel A), whereby the extent of CA across time points (i.e., 6, 12, 18, and 24 hr) was averaged and then divided by the extent of CA in control (i.e., 0 hr). All of the drugs at least doubled the peak extent of CA in all cell lines tested (FIG. 12, panel A), although the final extent of CA could be small or large in magnitude depending on the initial centrosomal burden as shown in FIG. 11. […] The peak extent in interphase HeLa cells was somewhat less at 30.7% and 48.1% for 10 and 25 μM RBN, respectively (FIG. 13, panel A). For Nos and BN, there was no major difference in CA levels in interphase versus mitotic cells.

Regarding `CC(=O)O[C@H]1C(=O)[C@@]2(C)[C@H]([C@H](OC(=O)c3ccccc3)[C@]3(O)C[C@H](OC(=O)[C@H](O)[C@@H](NC(=O)c4ccccc4)c4ccccc4)C(C)=C1C3(C)C)[C@]1(OC(C)=O)CO[C@@H]1C[C@@H]2O` [Paclitaxel, paclitaxel], the “inhibition of neurite extension” value in assay [1] was “moderate inhibition”. For the same compound, the “fragmentation of the interphase Golgi complex” value in assay [2] is “interphase Golgi complex fragmented”. Besides, the “interphase declustering index (DI): ratio of average cluster volume to average cell volume” value in [3] turned out to be 0.08. This compound also yielded an IC50 in [4] of 50 nM. Moreover, the “vinculin localization and focal adhesion points” value in assay [5] is listed as “less severe”.
For `COc1ccc2c(c1OC)C(=O)O[C@@H]2[C@H]1c2c(c(Br)c3c(c2OC)OCO3)CCN1C` [BN, bromonoscapine], the “Peak subG1 percents over 48 h” value is listed as 42.0% in assay [6] (10 μM); 54.9% in [6] (25 μM); 3.5% in assay [8] (10 μM); 3.0% in [8] (25 μM); 46.0% in assay [11] (10 μM); 42.8% in [11] (25 μM). Besides, the “Peak subG1 percents over 48 h” value in assay [12] (10 μM) came out at 16.5%; in assay [12] (25 μM), 20.4%; in [13] (10 μM) it was 32.5%; in assay [13] (25 μM), 65.2%. Besides, the “maximum (peak) subG1 fraction relative to control” value is on record as 4.4 × control in [6] (25 μM), 9.2 × control in assay [11] (25 μM) and 9.3 × control in assay [13] (25 μM). In addition, the “CA / peak extent of CA versus control levels” value in assay [7] was “neither concentrations of Nos or BN significantly increased CA over control levels”. In addition, in [8], the “peak subG1 percent compared to controls” value is reported as “did not cause a significant increase”. Also, the “extent of CA over controls” value in [9] is reported as “did not significantly increase the extent of CA over controls”. For the same compound, the “sub-G1 population versus parent ZR-75-30 cells” value in [10] is given as “much higher sub-G1 population compared to parent ZR-75-30 cells”. Further, in [12], the “death in cancer cell lines vs. HDFs” value is “the same was true for 231 and PC3 cells”.
On to `COc1ccc2c(c1OC)C(=O)O[C@@H]2[C@H]1c2c(cc3c(c2OC)OCO3)CCN1C` [Nos, noscapine], for which the “Peak subG1 percents over 48 h” value in assay [6] (10 μM) is reported as 25.0%; in assay [6] (25 μM) it was 50.1%; in [8] (10 μM), 4.1%; in assay [8] (25 μM), 4.2%; in assay [11] (10 μM) it was 29.9%; in [11] (25 μM), 32.7%. Moreover, the “Peak subG1 percents over 48 h” value in assay [12] (10 μM) is on record as 14.8%; in assay [12] (25 μM), 11.2%; in assay [13] (10 μM), 26.3%; in [13] (25 μM), 43.9%. In [7], the “CA / peak extent of CA versus control levels” value was “neither concentrations of Nos or BN significantly increased CA over control levels”. Further, the “expression levels of Cyclin E and PLK4” value in [14] was “surge in the expression levels of Cyclin E and PLK4”. Also, the “induction of CA” value in assay [15] was “failed to induce significant CA”. Moreover, in assay [8], the “peak subG1 percent compared to controls” value is “did not cause a significant increase”. Besides, the “extent of CA over controls” value in assay [9] is reported as “did not significantly increase the extent of CA over controls”. For the same compound, the “death in cancer cell lines vs. HDFs” value in assay [12] is given as “more death in all cancer cell lines vs. HDFs”.

The term IC50 denotes the point on the concentration scale where inhibition reaches its midpoint.
